According to ChEMBL document CHEMBL2057107, “Synthesis and evaluation of aplysinopsin analogs as inhibitors of human monoamine oxidase A and B” (Bioorg Med Chem Lett, 2012):

Assays:
[1] = target: T1, Amine oxidase [flavin-containing] A (Homo sapiens, UniProt P21397); assay: Inhibition of human recombinant MAO-A using kynuramine as substrate preincubated with compound for 15 mins measured after 20 mins by fluorometric analysis
T1 sequence (P21397 whole entry): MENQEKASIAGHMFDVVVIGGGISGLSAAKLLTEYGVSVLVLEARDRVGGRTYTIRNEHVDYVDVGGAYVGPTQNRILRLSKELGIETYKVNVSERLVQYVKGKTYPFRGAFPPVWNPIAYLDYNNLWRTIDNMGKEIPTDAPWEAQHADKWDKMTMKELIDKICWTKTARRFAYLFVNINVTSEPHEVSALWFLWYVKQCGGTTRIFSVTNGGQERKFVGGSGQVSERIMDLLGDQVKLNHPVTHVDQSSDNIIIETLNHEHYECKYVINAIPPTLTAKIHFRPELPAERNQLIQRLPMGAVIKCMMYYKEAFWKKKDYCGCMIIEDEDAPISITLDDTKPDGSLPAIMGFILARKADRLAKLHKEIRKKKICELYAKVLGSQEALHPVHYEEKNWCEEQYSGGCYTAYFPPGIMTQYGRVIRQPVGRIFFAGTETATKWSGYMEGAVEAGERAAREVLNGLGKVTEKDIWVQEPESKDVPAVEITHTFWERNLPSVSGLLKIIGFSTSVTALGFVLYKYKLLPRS

[2] = target: T2, Amine oxidase [flavin-containing] B (Homo sapiens, UniProt P27338); assay: Inhibition of human recombinant MAO-B using kynuramine as substrate preincubated with compound for 15 mins measured after 20 mins by fluorometric analysis
T2 sequence (P27338 whole entry): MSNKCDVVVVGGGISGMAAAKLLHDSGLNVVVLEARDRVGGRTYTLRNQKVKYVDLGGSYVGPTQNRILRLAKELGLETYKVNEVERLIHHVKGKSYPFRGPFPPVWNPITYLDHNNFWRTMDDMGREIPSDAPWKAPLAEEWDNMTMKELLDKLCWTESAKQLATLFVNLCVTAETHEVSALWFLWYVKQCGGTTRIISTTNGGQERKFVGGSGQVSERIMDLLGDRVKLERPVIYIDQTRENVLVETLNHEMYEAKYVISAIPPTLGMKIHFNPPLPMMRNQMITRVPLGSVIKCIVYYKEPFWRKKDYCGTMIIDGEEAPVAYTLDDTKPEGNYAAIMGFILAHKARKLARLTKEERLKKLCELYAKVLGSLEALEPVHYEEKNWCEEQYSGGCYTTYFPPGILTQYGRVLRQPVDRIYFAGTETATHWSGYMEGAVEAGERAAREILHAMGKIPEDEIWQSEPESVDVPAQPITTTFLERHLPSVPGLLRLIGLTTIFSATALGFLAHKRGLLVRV

[3] = species on record: Homo sapiens; assay: Selectivity ratio of IC50 for human recombinant MAO-B to IC50 for human recombinant MAO-A

Row | IC50 [1] [µM] | IC50 [2] [µM] | Ratio IC50 [3] | SMILES
1 | 0.0056 | 0.447 |  | CN1C(=N)N(C)/C(=C/c2c[nH]c3cc(Br)ccc23)C1=O
2 | 6.11 | 34.3 | 5.62 | CN1C(=N)NC(=O)/C1=C\c1c[nH]c2c(Br)cccc12
3 | 1.2 | 14.3 | 11.9 | CN1C(=N)N/C(=C\c2c[nH]c3c(Br)cccc23)C1=O
4 | 5.48 | 26.8 | 4.9 | C/N=C1/N/C(=C\c2c[nH]c3cccc(Br)c23)C(=O)N1C
5 | 0.153 | 2.82 | 18.4 | C/N=C1\N(C)C(=O)/C(=C\c2c[nH]c3c(Br)cccc23)N1C
6 | 0.627 | 2.43 | 3.88 | CSC1=NC(=O)/C(=C/c2c[nH]c3c(Br)cccc23)N1
7 | 6.07 | 35.7 | 5.87 | CN1C(=N)NC(=O)/C1=C\c1c[nH]c2cc(Br)ccc12
8 | 2.58 | 26.3 | 10.2 | C/N=C1\NC(=O)/C(=C\c2c[nH]c3cccc(Br)c23)N1C
9 | 5.82 | 30.5 | 5.24 | C/N=C1/N/C(=C\c2c[nH]c3ccccc23)C(=O)N1C
10 | 2.78 | 59.3 | 21.3 | CSC1=N/C(=C\c2c[nH]c3ccccc23)C(=O)N1
11 | 14.3 | 24.3 | 1.69 | O=C1NC(=S)N/C1=C\c1c[nH]c2ccccc12
12 | 5.52 | 27.8 | 5.04 | N=C1NC(=O)/C(=C/c2c[nH]c3c(Br)cccc23)N1
13 | 0.543 | 1.24 | 2.27 | O=C1NC(=S)N/C1=C\c1c[nH]c2c(Br)cccc12
14 | 0.035 | 10 | 290 | CN1C(=N)N(C)/C(=C/c2c[nH]c3ccccc23)C1=O [APLYSINOPSIN]
15 | 0.085 | 0.37 | 4.38 | C/N=C1\N(C)C(=O)/C(=C\c2c[nH]c3ccc(Br)cc23)N1C
16 | 13.3 | 6 | 0.45 | C/N=C1\NC(=O)/C(=C/c2c[nH]c3ccccc23)N1
17 | 3.68 | 25.3 | 6.88 | N=C1NC(=O)/C(=C/c2c[nH]c3cc(Br)ccc23)N1
18 | 2.47 | 28.3 | 11.5 | N=C1NC(=O)/C(=C/c2c[nH]c3cccc(Br)c23)N1
19 | 1.53 | 2.57 | 1.67 | O=C1NC(=S)N/C1=C\c1c[nH]c2cc(Br)ccc12
20 | 1.08 | 4.26 | 3.94 | C/N=C1/N/C(=C\c2c[nH]c3c(Br)cccc23)C(=O)N1C
21 | 0.098 | 9.02 | 92.3 | C/N=C1\N(C)C(=O)/C(=C\c2c[nH]c3ccccc23)N1C [METHYLAPLYSINOPSIN]
22 | 0.165 | 3.8 | 23 | CN1C(=N)N/C(=C\c2c[nH]c3cc(Br)ccc23)C1=O
23 | 0.029 | 2.67 | 92 | C/N=C1\NC(=O)/C(=C\c2c[nH]c3cc(Br)ccc23)N1C
24 | 1.12 | 25.7 | 22.9 | C/N=C1/N/C(=C\c2c[nH]c3cc(Br)ccc23)C(=O)N1C
25 | 8 | 24.5 | 3.06 | CN1C(=N)NC(=O)/C1=C\c1c[nH]c2ccc(Br)cc12

Row | IC50 [1] [µM] | IC50 [2] [µM] | Ratio IC50 [3] | SMILES
26 | 0.052 | 3.12 | 60.5 | CN1C(=N)N(C)/C(=C/c2c[nH]c3c(Br)cccc23)C1=O
27 | 0.267 | 0.45 | 1.68 | O=C1NC(=S)N/C1=C\c1c[nH]c2cccc(Br)c12
28 | 0.263 | 11.6 | 44.2 | C/N=C1\NC(=O)/C(=C\c2c[nH]c3ccc(Br)cc23)N1C
29 | 7.13 | 8.75 | 1.22 | CSC1=NC(=O)/C(=C/c2c[nH]c3ccc(Br)cc23)N1
30 | 1.52 | 37 | 24.4 | CN1C(=N)N/C(=C\c2c[nH]c3cccc(Br)c23)C1=O
31 | 0.327 | 4.3 | 13.2 | CN1C(=N)N/C(=C\c2c[nH]c3ccc(Br)cc23)C1=O
32 | 0.623 | 5.22 | 8.37 | C/N=C1\N(C)C(=O)/C(=C\c2c[nH]c3cccc(Br)c23)N1C
33 | 2.07 | 51.2 | 24.8 | CN1C(=N)N(C)/C(=C/c2c[nH]c3cccc(Br)c23)C1=O
34 | 1.2 | 2 | 1.66 | C/N=C1\NC(=O)/C(=C/c2c[nH]c3ccc(Br)cc23)N1
35 | 0.677 | 3.73 | 5.51 | CSC1=NC(=O)/C(=C/c2c[nH]c3cccc(Br)c23)N1
36 | 3.9 | 26 | 6.66 | C/N=C1\NC(=O)/C(=C/c2c[nH]c3c(Br)cccc23)N1
37 | 4.43 | 20.7 | 4.66 | C/N=C1\NC(=O)/C(=C/c2c[nH]c3cc(Br)ccc23)N1
38 | 26.2 | > 100 |  | CN1C(=N)NC(=O)/C1=C\c1c[nH]c2cccc(Br)c12
39 | 3.25 | 16.8 | 5.16 | C/N=C1/N/C(=C\c2c[nH]c3ccc(Br)cc23)C(=O)N1C
40 | 1.23 | 2.57 | 2.08 | O=C1NC(=S)N/C1=C\c1c[nH]c2ccc(Br)cc12
41 | 0.533 | 1.42 | 2.65 | CSC1=NC(=O)/C(=C/c2c[nH]c3cc(Br)ccc23)N1
42 | 3.08 | 33.8 | 11 | C/N=C1\NC(=O)/C(=C\c2c[nH]c3ccccc23)N1C [ISOPLYSIN A]
43 | 1.9 | 12.8 | 6.75 | C/N=C1\NC(=O)/C(=C\c2c[nH]c3c(Br)cccc23)N1C
44 | 12.2 | 43.2 | 3.55 | CN1C(=N)NC(=O)/C1=C\c1c[nH]c2ccccc12
45 | 1.8 | 7.03 | 3.9 | C/N=C1\NC(=O)/C(=C/c2c[nH]c3cccc(Br)c23)N1
46 | 12.8 | 33 | 2.59 | N=C1NC(=O)/C(=C/c2c[nH]c3ccccc23)N1
47 | 5.87 | 11.3 | 1.93 | N=C1NC(=O)/C(=C/c2c[nH]c3ccc(Br)cc23)N1
48 | 1.97 | 34.3 | 17.5 | CN1C(=N)N/C(=C\c2c[nH]c3ccccc23)C1=O
49 | 0.236 | 2.7 | 11.4 | CN1C(=N)N(C)/C(=C/c2c[nH]c3ccc(Br)cc23)C1=O
50 | 0.018 | 0.207 | 11.2 | C/N=C1\N(C)C(=O)/C(=C\c2c[nH]c3cc(Br)ccc23)N1C
